The values below come from patent US20200330444A1, “[…] FOR TREATING PAIN AND RELATED DISEASES AND CONDITIONS, AND COMPOSITIONS AND METHODS THEREOF” (NeuForm Pharmaceuticals, Inc., priority 2016, published 2020).

In one data set the target is CYP2D6 (Homo sapiens, UniProt P10635). Nature of the data set: In vitro metabolic stability on incubation with CYP2D6. In kind it is in vitro ADME. On the procedure: (§1) The stability time course samples were prepared and extracted immediately by protein precipitation method using acetonitrile containing 575 ng/mL carbutamide, 100 ng/mL loxapine and 10 ng/mL longdaysin as the internal standard (IS). The samples were analyzed on a Waters Acquity UPLC system coupled with a mass dspectrometer. The peak area ratios of respective extracted ion chromatograms were used for relative comparison.
CYP2D6, sequence (P10635 whole entry): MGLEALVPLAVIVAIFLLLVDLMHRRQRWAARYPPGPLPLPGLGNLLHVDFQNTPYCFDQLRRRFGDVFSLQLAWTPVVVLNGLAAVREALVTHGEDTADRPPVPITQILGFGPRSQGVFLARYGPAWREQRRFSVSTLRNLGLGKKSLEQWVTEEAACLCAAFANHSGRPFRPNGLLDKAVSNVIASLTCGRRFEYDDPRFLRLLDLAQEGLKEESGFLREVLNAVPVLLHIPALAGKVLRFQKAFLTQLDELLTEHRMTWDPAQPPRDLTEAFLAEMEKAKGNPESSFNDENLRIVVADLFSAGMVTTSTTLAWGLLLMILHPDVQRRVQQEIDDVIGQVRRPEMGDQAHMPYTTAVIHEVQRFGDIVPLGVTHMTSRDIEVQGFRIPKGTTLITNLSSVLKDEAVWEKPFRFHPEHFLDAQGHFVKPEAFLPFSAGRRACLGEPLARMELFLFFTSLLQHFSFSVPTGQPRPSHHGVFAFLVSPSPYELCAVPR
(§2) 300 μL of the above 2.0 μM combo solutions were added into 1.5 mL of Eppendof tubes. The samples were put in 37° C. incubator for 10 minutes. Then 300 of 37° C. pre-warmed 0.35 mg/mL of human liver microsome (or 37.5 pmol/mL CYP3A4, or 25 pmol/mL CYP2D6) and 2.6 mM NADPH in 100 mM potassium phosphate buffer pH 7.4 (contains 3.3 mM MgCl2) was added to initiate the enzyme activity. 50.0 μL of the reaction mixture was put into 150 μL of acetonitrile with 100 ng/mL loxapine, 10 ng/ml longdaysin (IS) to stop the reaction at 0′, 15′, 30′, 60′, 2 hours, 3 hours and 4 hours. The samples were vortexed and centrifuged at 13,000 g for approximately 5 min, then supernatants were taken and stored in −20° C. freezer. After the last samples were taken and they were placed in −20° C. at least 1 hour. All samples were put into a refrigerator at approximate 4° C. for 30 min. The samples were vortexed. […]

A short description of data set [1]: In vitro metabolic stability in human liver microsome suspensions. The data set is classed as in vitro ADME. The procedure: as §1, §2
Background: Liver microsomes are a subcellular fraction often used to study metabolism.

On to `[2H]C([2H])(C[C@@]1(c2ccccn2)CC([2H])([2H])OC2(CC([2H])([2H])C([2H])([2H])C2)C1)NCc1sccc1OC` [D8-oliceridine], for which the “Half-life increased by, vs oliceridine” value at CYP2D6 amounted to 200%.
For the compound `[2H]C([2H])(C[C@@]1(c2ccccn2)CCOC2(CC([2H])([2H])C([2H])([2H])C2)C1)NCc1sccc1OC` [D6-Oliceridine-a], the “Concentration after incubation higher than that of the non-deuterated compound” value in data set [1] (human liver microsome, 60 min) worked out at 32%. Moreover, the “Half-life increased by, vs oliceridine” value in data set [1] (incubation with human liver microsome) came out at 29%; at CYP2D6 it was 200%.
